Some results are limits rather than exact numbers.

The subject of the experiment is BTK Activity in RAMOS B Cells. Briefly: Assay to determine BTK activity in RAMOS B cells (anti-IgM, FLIPR Calcium 6). It is filed as cell-based. As to conditions: EC80 anti-IgM, FLIPR calcium read. A digest of the protocol:
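Ramos B cells were loaded with Calcium 6 dye containing 5 mM probenecid (2 h at 37 °C, then 15 min at 25 °C) and exposed to compound for 60 min at 25 °C. Anti-IgM was then added from a 4×EC80 stock, and calcium flux was recorded by FLIPR for 160 s; IC50 was derived.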

On to `CC#CC(=O)N1CCCC2CN(c3c(F)cc(C(N)=O)c4[nH]c(C)c(Cl)c34)CC21` (centres unmarked) [Compound 40, 4-(1-(but-2-ynoyl)octahydro-6H-pyrrolo[3,4-b]pyridin-6-yl)-3-chloro-5-fluoro-2-methyl-1H-indole-7-carboxamide], for which the IC50 (Homo sapiens, Ramos) was in the range of 10 to 100 nM.

As for `C=CC(=O)N1CCC2CCN(c3c(F)cc(C(N)=O)c4[nH]c(C)c(Cl)c34)CC21` (single isomer, unassigned) [Compound 29a, 4-(1-acryloyloctahydro-6H-pyrrolo[2,3-c]pyridin-6-yl)-3-chloro-5-fluoro-2-methyl-1H-indole-7-carboxamide], the IC50 (Homo sapiens, Ramos) was in the range of 10 to 100 nM. On the same count and under the same terms, to `C=CC(=O)N1CCc2c(-c3c(F)cc(C(N)=O)c4[nH]c(C)c(Cl)c34)cccc2C1C` (racemic) [Compound 22a, 4-(2-acryloyl-1-methyl-1,2,3,4-tetrahydroisoquinolin-5-yl)-3-chloro-5-fluoro-2-methyl-1H-indole-7-carboxamide] belongs 10 to 100 nM; to `C=CC(=O)N1CCC[C@@H](c2c(F)c(F)c(C(N)=O)c3[nH]c(C)c(Cl)c23)C1` [Compound 16, (S)-4-(1-acryloylpiperidin-3-yl)-3-chloro-5,6-difluoro-2-methyl-1H-indole-7-carboxamide], below 10 nM. Same read-out and setting: to `CC#CC(=O)N[C@H]1C[C@@H](F)CN(c2c(F)cc(C(N)=O)c3[nH]c(C)c(C)c23)C1` [Compound 33, 4-((3S,5R)-3-(but-2-ynamido)-5-fluoropiperidin-1-yl)-5-fluoro-2,3-dimethyl-1H-indole-7-carboxamide] belongs below 10 nM. `C=CC(=O)N1CCC2CCN(c3c(F)cc(C(N)=O)c4[nH]c(C)c(C)c34)CC21` (single isomer, unassigned) [Compound 32b, 4-(1-acryloyloctahydro-6H-pyrrolo[2,3-c]pyridin-6-yl)-5-fluoro-2,3-dimethyl-1H-indole-7-carboxamide]: the IC50 lay in the range of 10 to 100 nM. For the molecule `CC#CC(=O)N[C@H]1C[C@H](F)CN(c2c(F)cc(C(N)=O)c3[nH]c(C)c(C)c23)C1` [Compound 35, 4-((3S,5S)-3-(but-2-ynamido)-5-fluoropiperidin-1-yl)-5-fluoro-2,3-dimethyl-1H-indole-7-carboxamide], the 50% inhibitory concentration (IC50) (Homo sapiens, Ramos) was below 10 nM. Same read-out and setting: to `C=CC(=O)N1CCC[C@@H](c2c(F)cc(C(N)=O)c3[nH]c(C)c(Cl)c23)C1` [Compound 2a, (S)-4-(1-acryloylpiperidin-3-yl)-3-chloro-5-fluoro-2-methyl-1H-indole-7-carboxamide] belongs below 10 nM.

As for `C=CC(=O)N1CCC[C@@H](c2c(F)c(F)c(C(N)=O)c3[nH]c(C)c(F)c23)C1` [Compound 6b, (S)-4-(1-acryloylpiperidin-3-yl)-3,5,6-trifluoro-2-methyl-1H-indole-7-carboxamide], the IC50 (Homo sapiens, Ramos) is below 10 nM. In the case of `C=CC(=O)N1CCc2c(cccc2-c2c(F)cc(C(N)=O)c3[nH]c(C)c(Cl)c23)C1` (single isomer, unassigned) [Compound 20b], the IC50 was below 10 nM. `CC#CC(=O)N[C@H]1C[C@@H](F)CN(c2c(F)cc(C(N)=O)c3[nH]c(C)c(Cl)c23)C1` [Compound 27, 4-((3S,5R)-3-(but-2-ynamido)-5-fluoropiperidin-1-yl)-3-chloro-5-fluoro-2-methyl-1H-indole-7-carboxamide]: under “Homo sapiens, Ramos”, the IC50 was below 10 nM. Still for that read-out and setting: the value for `C=CC(=O)N1CCC=C(c2c(F)cc(C(N)=O)c3[nH]c(C)c(Cl)c23)C1` [Compound 1, 4-(1-acryloyl-1,2,5,6-tetrahydropyridin-3-yl)-3-chloro-5-fluoro-2-methyl-1H-indole-7-carboxamide] was below 10 nM; that for `C=CC(=O)N1CCC[C@H](c2c(F)c(F)c(C(N)=O)c3[nH]c(C)c(F)c23)C1` [Compound 6a, (R)-4-(1-acryloylpiperidin-3-yl)-3,5,6-trifluoro-2-methyl-1H-indole-7-carboxamide] was below 10 nM; that for `C=CC(=O)N1CCC2CCN(c3c(F)cc(C(N)=O)c4[nH]c(C)c(Cl)c34)CC21` (racemic) [Compound 29, 4-(1-acryloyloctahydro-6H-pyrrolo[2,3-c]pyridin-6-yl)-3-chloro-5-fluoro-2-methyl-1H-indole-7-carboxamide] was 10 to 100 nM.

Usually IC50 stands for the midpoint of a concentration-inhibition curve.

For the origin of these results see US12448363B2, “Kinase inhibitors” (Vidya Therapeutics, Inc., priority 2020, dated 2025).
